{"source": "patent US11179433B2", "about": "“Mouth freshener” (ARI HEALTHCARE PVT. LTD., priority 2014, dated 2021)", "format_in_all_cases": "cell-based", "details_in_all_cases": "control, concentration not given, 100 μl per well", "key": {"Candida albicans": {"tested_on": "Candida albicans", "test": "Anti-fungal activity, agar well diffusion (zone of inhibition)", "experimental": "(§1) The anti-microbial activity and the anti-fungal activity of the mouth freshener composition of the present disclosure was determined by testing it on Escherichia coli, Staphylococcus aureus and Candida albicans as the test microorganisms in comparison with a product presently available in the market (herein forward referred to as Product X), methanol and a standard drug i.e. Chlorhexidine. Escherichia coli, Staphylococcus aureus were grown in Luria-Bertani broth (LB broth) and Candida albicans was grown in Potato Dextrose broth (PD broth) until the growth reached approximately 10^6 cfu (colony forming units) per ml culture was attained. 100 μl of this culture was used for the antimicrobial assay. The 1-4% solution of powder extract was prepared by dissolving the extract in methanol as a solvent and all these solutions were store at 4° C. temperature till further use. Mueller-Hinton (HiMedia) agar plates were used to carry out the testing of the anti-microbial activity and Potato dextrose (Himedia) agar plates were used to carry out the testing of the anti-fungal activity of the mouth freshener composition. The dried surface of a Mueller-Hinton agar plate was inoculated by spreading 100 μl culture suspension on the agar surface. […]"}, "Staphylococcus aureus": {"tested_on": "Staphylococcus aureus", "test": "Anti-microbial activity, agar well diffusion (zone of inhibition)", "experimental": "as §1"}, "Escherichia coli": {"tested_on": "Escherichia coli", "test": "Anti-microbial activity, agar well diffusion (zone of inhibition)", "experimental": "as §1"}}, "data": [{"smiles": "[H]/N=C(\\N/C(=N/[H])NCCCCCCNC(=N)NC(=N)Nc1ccc(Cl)cc1)Nc1ccc(Cl)cc1", "note": "[Chlorhexidine]", "values": [{"measurement": "Zone of inhibition", "setting": "Candida albicans", "result": 19, "unit": "mm"}, {"measurement": "Zone of inhibition", "setting": "Staphylococcus aureus", "result": 18, "unit": "mm"}, {"measurement": "Zone of inhibition", "setting": "Escherichia coli", "result": 15, "unit": "mm"}]}]}
